Test results reported in ChEMBL document CHEMBL1147210, “Synthesis and antibacterial activity of levofloxacin derivatives with certain bulky residues on piperazine ring” (Eur J Med Chem, 2007).
Values after ≈ are worked out from the molar mass of the structure shown. Active and inactive are the calls of the source. The rule behind the calls is not given here.

Assays:
Staphylococcus aureus [1] = assay: Antibacterial activity against methicillin-resistant Staphylococcus aureus isolate 2 after 18 hrs; assay type: functional
Klebsiella pneumoniae = assay: Antibacterial activity against Klebsiella pneumoniae ATCC 10031 after 18 hrs; assay type: functional; settings: ATCC 10031, 18 h
[2] = system: Staphylococcus epidermidis; assay: Antibacterial activity against Staphylococcus epidermidis ATCC 14940 after 18 hrs; assay type: functional; settings: ATCC 14940, 18 h
Enterococcus faecalis = assay: Antibacterial activity against Enterococcus faecalis NCTC 6013 after 18 hrs; assay type: functional; settings: NCTC 6013, 18 h
Bacillus subtilis = assay: Antibacterial activity against Bacillus subtilis ATCC 6051 after 18 hrs; assay type: functional; settings: ATCC 6051, 18 h
Salmonella typhi = assay: Antibacterial activity against Salmonella typhi ATCC 19430 after 18 hrs; assay type: functional, Salmonella enterica subsp. enterica serovar Typhi; settings: Salmonella enterica, ATCC 19430, 18 h
Staphylococcus aureus [3] = assay: Antibacterial activity against Staphylococcus aureus ATCC 6538p after 18 hrs; assay type: functional
Escherichia coli [4] = assay: Antibacterial activity against Escherichia coli NCTC 12900 after 18 hrs; assay type: functional; settings: NCTC 12900, 18 h
[5] = system: Staphylococcus epidermidis; assay: Antibacterial activity against Staphylococcus epidermidis ATCC 12228 after 18 hrs; assay type: functional; settings: ATCC 12228, 18 h
Staphylococcus aureus [6] = assay: Antibacterial activity against Staphylococcus aureus ATCC 25923 after 18 hrs; assay type: functional; settings: ATCC 25923, 18 h
Shigella flexneri = assay: Antibacterial activity against Shigella flexneri NCTC 8516 after 18 hrs; assay type: functional; settings: NCTC 8516, 18 h
Staphylococcus aureus [7] = assay: Antibacterial activity against methicillin-resistant Staphylococcus aureus isolate 1 after 18 hrs; assay type: functional
Pseudomonas aeruginosa = assay: Antibacterial activity against Pseudomonas aeruginosa ATCC 27853 after 18 hrs; assay type: functional; settings: ATCC 27853, 18 h
Serratia marcescens = assay: Antibacterial activity against Serratia marcescens PTCC 1111 after 18 hrs; assay type: functional
Escherichia coli [8] = assay: Antibacterial activity against Escherichia coli ATCC 25922 after 18 hrs; assay type: functional; settings: ATCC 25922, 18 h
MCF7 = assay: Cytotoxic activity against human MCF7 cells after 48 hrs by MTT reduction assay; assay type: functional, cell-based; settings: for IC50: MCF7, 48 h

SMILES | MIC (Staphylococcus aureus [1]) [µg/mL] | MIC (Klebsiella pneumoniae) [µg/mL] | MIC [2] [µg/mL] | MIC (Enterococcus faecalis) [µg/mL] | MIC (Bacillus subtilis) [µg/mL] | MIC (Salmonella typhi) [µg/mL] | MIC (Staphylococcus aureus [3]) [µg/mL] | MIC (Escherichia coli [4]) [µg/mL] | MIC [5] [µg/mL] | MIC (Staphylococcus aureus [6]) [µg/mL] | MIC (Shigella flexneri) [µg/mL] | MIC (Staphylococcus aureus [7]) [µg/mL] | MIC (Pseudomonas aeruginosa) [µg/mL] | MIC (Serratia marcescens) [µg/mL] | MIC (Escherichia coli [8]) [µg/mL] | IC50 (MCF7) [µM] | Activity (MCF7)
Cc1ccc(/C(CN2CCN(c3c(F)cc4c(=O)c(C(=O)O)cn5c4c3OC[C@@H]5C)CC2)=N/O)cc1 | 0.5 (≈ 1.01 µM) | > 4 | 0.5 (≈ 1.01 µM) | 0.25 (≈ 0.506 µM) | 0.5 (≈ 1.01 µM) | 1 (≈ 2.02 µM) | 0.5 (≈ 1.01 µM) | 1 (≈ 2.02 µM) | 0.5 (≈ 1.01 µM) | 1 (≈ 2.02 µM) | 1 (≈ 2.02 µM) | 0.5 (≈ 1.01 µM) | > 4 | > 4 | 1 (≈ 2.02 µM) | – | –
C[C@H]1COc2c(N3CCN(C)CC3)c(F)cc3c(=O)c(C(=O)O)cn1c23.C[C@H]1COc2c(N3CCN(C)CC3)c(F)cc3c(=O)c(C(=O)O)cn1c23.O [LEVOFLOXACIN] | 0.25 | 0.25 | 0.5 | 1 | 0.5 | 0.03 | 0.25 | – | 0.25 | 0.5 | 0.03 | 0.25 | – | 0.5 | – | – | –
COc1ccc(C(=O)CN2CCN(c3c(F)cc4c(=O)c(C(=O)O)cn5c4c3OC[C@@H]5C)CC2)cc1 | 1 (≈ 2.02 µM) | 4 (≈ 8.07 µM) | 0.25 (≈ 0.505 µM) | 0.06 (≈ 0.121 µM) | 0.25 (≈ 0.505 µM) | 0.5 (≈ 1.01 µM) | 0.5 (≈ 1.01 µM) | 0.5 (≈ 1.01 µM) | 0.25 (≈ 0.505 µM) | 0.5 (≈ 1.01 µM) | 0.5 (≈ 1.01 µM) | 0.5 (≈ 1.01 µM) | > 4 | 4 (≈ 8.07 µM) | 0.5 (≈ 1.01 µM) | – | –
C[C@H]1COc2c(N3CCN(C/C(=N\O)c4ccc(Br)cc4)CC3)c(F)cc3c(=O)c(C(=O)O)cn1c23 | 0.5 (≈ 0.894 µM) | > 4 | 0.12 (≈ 0.215 µM) | 0.06 (≈ 0.107 µM) | 0.12 (≈ 0.215 µM) | 0.5 (≈ 0.894 µM) | 0.5 (≈ 0.894 µM) | 1 (≈ 1.79 µM) | 0.25 (≈ 0.447 µM) | 0.5 (≈ 0.894 µM) | 0.5 (≈ 0.894 µM) | 0.5 (≈ 0.894 µM) | > 4 | > 4 | 4 (≈ 7.15 µM) | 5.2 | –
C[C@H]1COc2c(N3CCNCC3)c(F)cc3c(=O)c(C(=O)O)cn1c23 [N-DESMETHYL LEVOFLOXACIN] | 2 (≈ 5.76 µM) | 0.25 (≈ 0.72 µM) | 1 (≈ 2.88 µM) | 0.06 (≈ 0.173 µM) | 1 (≈ 2.88 µM) | 0.06 (≈ 0.173 µM) | 2 (≈ 5.76 µM) | 0.12 (≈ 0.345 µM) | 1 (≈ 2.88 µM) | 4 (≈ 11.5 µM) | 0.06 (≈ 0.173 µM) | 2 (≈ 5.76 µM) | > 4 | 1 (≈ 2.88 µM) | 0.12 (≈ 0.345 µM) | – | –
C[C@H]1COc2c(N3CCN(C/C(=N\OCc4ccccc4)c4ccccc4)CC3)c(F)cc3c(=O)c(C(=O)O)cn1c23 | > 4 | > 4 | > 4 | > 4 | > 4 | > 4 | > 4 | > 4 | > 4 | > 4 | > 4 | > 4 | > 4 | > 4 | > 4 | – | inactive
COc1ccc(/C(CN2CCN(c3c(F)cc4c(=O)c(C(=O)O)cn5c4c3OC[C@@H]5C)CC2)=N/O)cc1 | 0.5 (≈ 0.979 µM) | > 4 | 0.5 (≈ 0.979 µM) | 0.06 (≈ 0.118 µM) | 0.12 (≈ 0.235 µM) | 0.5 (≈ 0.979 µM) | 0.5 (≈ 0.979 µM) | 0.5 (≈ 0.979 µM) | 0.5 (≈ 0.979 µM) | 1 (≈ 1.96 µM) | 0.5 (≈ 0.979 µM) | 1 (≈ 1.96 µM) | > 4 | > 4 | 0.5 (≈ 0.979 µM) | – | –
C[C@H]1COc2c(N3CCN(CC(=O)c4ccc(Cl)cc4)CC3)c(F)cc3c(=O)c(C(=O)O)cn1c23 | 0.25 (≈ 0.5 µM) | > 4 | 0.12 (≈ 0.24 µM) | 0.06 (≈ 0.12 µM) | 0.12 (≈ 0.24 µM) | 0.25 (≈ 0.5 µM) | 0.5 (≈ 1 µM) | 1 (≈ 2 µM) | 0.25 (≈ 0.5 µM) | 0.5 (≈ 1 µM) | 0.25 (≈ 0.5 µM) | 0.25 (≈ 0.5 µM) | > 4 | 4 (≈ 8 µM) | 0.5 (≈ 1 µM) | 5.2 | –
Cc1ccc(C(=O)CN2CCN(c3c(F)cc4c(=O)c(C(=O)O)cn5c4c3OC[C@@H]5C)CC2)cc1 | 1 (≈ 2.09 µM) | > 4 | 0.5 (≈ 1.04 µM) | 0.25 (≈ 0.521 µM) | 0.5 (≈ 1.04 µM) | 1 (≈ 2.09 µM) | 1 (≈ 2.09 µM) | 0.5 (≈ 1.04 µM) | 0.5 (≈ 1.04 µM) | 0.5 (≈ 1.04 µM) | 0.5 (≈ 1.04 µM) | 1 (≈ 2.09 µM) | > 4 | > 4 | 1 (≈ 2.09 µM) | – | –
C[C@H]1COc2c(N3CCN(CC(=O)c4ccccc4)CC3)c(F)cc3c(=O)c(C(=O)O)cn1c23 | 1 (≈ 2.15 µM) | 0.5 (≈ 1.07 µM) | 0.5 (≈ 1.07 µM) | 4 (≈ 8.59 µM) | 0.5 (≈ 1.07 µM) | 0.12 (≈ 0.258 µM) | 0.5 (≈ 1.07 µM) | 0.25 (≈ 0.537 µM) | 0.5 (≈ 1.07 µM) | 0.5 (≈ 1.07 µM) | 0.25 (≈ 0.537 µM) | 0.5 (≈ 1.07 µM) | > 4 | 4 (≈ 8.59 µM) | 0.12 (≈ 0.258 µM) | – | –
C[C@H]1COc2c(N3CCN(C/C(=N\O)c4ccccc4)CC3)c(F)cc3c(=O)c(C(=O)O)cn1c23 | 1 (≈ 2.08 µM) | 4 (≈ 8.32 µM) | 0.5 (≈ 1.04 µM) | 4 (≈ 8.32 µM) | 0.25 (≈ 0.52 µM) | 0.5 (≈ 1.04 µM) | 0.5 (≈ 1.04 µM) | 4 (≈ 8.32 µM) | 0.5 (≈ 1.04 µM) | 0.5 (≈ 1.04 µM) | 0.5 (≈ 1.04 µM) | 0.5 (≈ 1.04 µM) | > 4 | > 4 | 4 (≈ 8.32 µM) | – | –
C[C@H]1COc2c(N3CCN(C/C(=N\O)c4ccc(Cl)cc4)CC3)c(F)cc3c(=O)c(C(=O)O)cn1c23 | 0.25 (≈ 0.485 µM) | > 4 | 0.12 (≈ 0.233 µM) | 0.06 (≈ 0.117 µM) | 0.25 (≈ 0.485 µM) | 0.5 (≈ 0.971 µM) | 0.25 (≈ 0.485 µM) | 1 (≈ 1.94 µM) | 0.25 (≈ 0.485 µM) | 0.5 (≈ 0.971 µM) | 0.5 (≈ 0.971 µM) | 0.5 (≈ 0.971 µM) | > 4 | > 4 | 2 (≈ 3.88 µM) | 5.2 | –
C[C@H]1COc2c(N3CCN(CC(=O)c4ccc(F)cc4)CC3)c(F)cc3c(=O)c(C(=O)O)cn1c23 | 1 (≈ 2.07 µM) | > 4 | 0.5 (≈ 1.03 µM) | 0.25 (≈ 0.517 µM) | 0.5 (≈ 1.03 µM) | 1 (≈ 2.07 µM) | 1 (≈ 2.07 µM) | 2 (≈ 4.14 µM) | 0.5 (≈ 1.03 µM) | 1 (≈ 2.07 µM) | 1 (≈ 2.07 µM) | 0.5 (≈ 1.03 µM) | > 4 | > 4 | 1 (≈ 2.07 µM) | – | –
C[C@H]1COc2c(N3CCN(C/C(=N\O)c4ccc(Cl)cc4Cl)CC3)c(F)cc3c(=O)c(C(=O)O)cn1c23 | 0.5 (≈ 0.91 µM) | > 4 | 0.5 (≈ 0.91 µM) | 4 (≈ 7.28 µM) | 1 (≈ 1.82 µM) | 4 (≈ 7.28 µM) | 0.5 (≈ 0.91 µM) | 4 (≈ 7.28 µM) | 0.5 (≈ 0.91 µM) | 0.5 (≈ 0.91 µM) | 4 (≈ 7.28 µM) | 0.5 (≈ 0.91 µM) | > 4 | > 4 | 4 (≈ 7.28 µM) | – | –
C[C@H]1COc2c(N3CCN(CC(=O)c4ccc(Cl)cc4Cl)CC3)c(F)cc3c(=O)c(C(=O)O)cn1c23 | 1 (≈ 1.87 µM) | > 4 | 0.5 (≈ 0.936 µM) | 0.5 (≈ 0.936 µM) | 1 (≈ 1.87 µM) | 2 (≈ 3.74 µM) | 1 (≈ 1.87 µM) | 2 (≈ 3.74 µM) | 1 (≈ 1.87 µM) | 0.5 (≈ 0.936 µM) | 1 (≈ 1.87 µM) | 0.5 (≈ 0.936 µM) | > 4 | > 4 | 1 (≈ 1.87 µM) | – | –
COc1cc([C@@H]2c3cc4c(cc3[C@@H](O[C@@H]3O[C@@H]5CO[C@@H](C)O[C@H]5[C@H](O)[C@H]3O)[C@H]3COC(=O)[C@H]23)OCO4)cc(OC)c1O [ETOPOSIDE] | – | – | – | – | – | – | – | – | – | – | – | – | – | – | – | 3.2 | –
C[C@H]1COc2c(N3CCN(C/C(=N\O)c4ccc(F)cc4)CC3)c(F)cc3c(=O)c(C(=O)O)cn1c23 | 1 (≈ 2.01 µM) | > 4 | 0.5 (≈ 1 µM) | 0.25 (≈ 0.502 µM) | 0.25 (≈ 0.502 µM) | 1 (≈ 2.01 µM) | 1 (≈ 2.01 µM) | 2 (≈ 4.01 µM) | 0.5 (≈ 1 µM) | 1 (≈ 2.01 µM) | 1 (≈ 2.01 µM) | 1 (≈ 2.01 µM) | > 4 | > 4 | 4 (≈ 8.02 µM) | – | –
C[C@H]1COc2c(N3CCN(CC(=O)c4ccc(Br)cc4)CC3)c(F)cc3c(=O)c(C(=O)O)cn1c23 | 0.5 (≈ 0.918 µM) | > 4 | 0.25 (≈ 0.459 µM) | 0.12 (≈ 0.22 µM) | 0.25 (≈ 0.459 µM) | 0.5 (≈ 0.918 µM) | 1 (≈ 1.84 µM) | 0.5 (≈ 0.918 µM) | 0.25 (≈ 0.459 µM) | 0.5 (≈ 0.918 µM) | 0.5 (≈ 0.918 µM) | 1 (≈ 1.84 µM) | > 4 | 4 (≈ 7.35 µM) | 0.5 (≈ 0.918 µM) | 5.2 | –
